Twelve compounds from patent US7820623B2 (priority 2006, dated 2010) can be followed below.

Where two headings read alike, the source gives them in different places. Bridge positions count the residues as written; N and C are the ends. Square brackets hold non-standard residues; d marks the D form. Peptide text beside a SMILES is read from it. 1Nal = N[C@@H](Cc1cccc2ccccc12)C(=O)O

Test [1] relates to thapsigargin-induced IFN-g production in human whole blood. Format: cell-based.
Test [2] has as its system thapsigargin-induced IL-2 production in human whole blood.
The mark [3] stands for this setting: read-out: Analogue Activity (IC50) WB/IFNg.
[4] abbreviates: read-out: Analogue Activity (IC50) WB/IL-2.

As for `CC[C@H](C)[C@@H]1NC(=O)[C@H](CCCCN)NC(=O)[C@@H](NC(=O)[C@H](CCCCN)NC(=O)[C@@H](NC(=O)[C@H](CC(N)=O)NC(=O)[C@@H](NC(=O)[C@@H](NC(=O)[C@@H](NC(=O)CN)C(C)C)[C@@H](C)CC)[C@@H](C)CC)C(C)C)CSSC[C@@H]2NC(=O)[C@H](CCCCN)NC(=O)CNC(=O)[C@H](Cc3ccccc3)NC(=O)[C@H](CCCNC(=N)N)NC(=O)[C@H](CCSC)NC(=O)CNC(=O)[C@H](C)NC(=O)[C@H](CCCCN)NC(=O)[C@H](CCCCN)NC(=O)[C@@H]3CSSC[C@@H](C(=O)N[C@H](C(=O)N4CCC[C@H]4C(=O)N[C@@H](CCCCN)C(=O)O)[C@@H](C)O)NC(=O)[C@H](Cc4c[nH]cn4)NC(=O)[C@H](CSSC[C@H](NC(=O)[C@H](CCC(N)=O)NC(=O)[C@H](CCCNC(=N)N)NC(=O)[C@H](CO)NC1=O)C(=O)N[C@@H](CC(C)C)C(=O)N[C@@H](CCC(=O)O)C(=O)N[C@@H](C)C(=O)N3)NC(=O)[C@H](CCCCN)NC(=O)CNC(=O)[C@H](CC(N)=O)NC(=O)[C@H](CCSC)NC2=O` [P17A] (H-GVIINVKCKISRQCLEACKKAGMRFGKCMNGKCHCTPK-OH; disulfide 8-28, 14-33, 18-35), the IC50 in test [1] (setting [3]) and in test [2] (setting [4]) was 0.173 nM each time.
Turning to `CC[C@H](C)[C@@H]1NC(=O)[C@H](CCCCN)NC(=O)[C@@H](NC(=O)[C@H](CCCCN)NC(=O)[C@@H](NC(=O)[C@H](CC(N)=O)NC(=O)[C@@H](NC(=O)[C@@H](NC(=O)[C@@H](NC(=O)CN)C(C)C)[C@@H](C)CC)[C@@H](C)CC)C(C)C)CSSC[C@@H]2NC(=O)[C@H](CCCCN)NC(=O)CNC(=O)[C@H](Cc3ccccc3)NC(=O)[C@H](CCCNC(=N)N)NC(=O)[C@H](CCSC)NC(=O)CNC(=O)[C@H](C)NC(=O)[C@H](CCCCN)NC(=O)[C@H](CCCCN)NC(=O)[C@@H]3CSSC[C@@H](C(=O)N[C@H](C(=O)N4CCC[C@H]4C(=O)N[C@@H](CCCNC(=N)N)C(=O)O)[C@@H](C)O)NC(=O)[C@H](Cc4c[nH]cn4)NC(=O)[C@H](CSSC[C@H](NC(=O)[C@H](CCC(N)=O)NC(=O)[C@H](CCCNC(=N)N)NC(=O)[C@H](CO)NC1=O)C(=O)N[C@@H](CC(C)C)C(=O)N[C@@H](CCC(=O)O)C(=O)N1CCC[C@H]1C(=O)N3)NC(=O)[C@H](CCCCN)NC(=O)CNC(=O)[C@H](CC(N)=O)NC(=O)[C@H](CCSC)NC2=O` [K38R] (H-GVIINVKCKISRQCLEPCKKAGMRFGKCMNGKCHCTPR-OH; disulfide 8-28, 14-33, 18-35), the IC50 in test [1] (setting [3]) is 0.04 nM; in test [2] (setting [4]), 0.039 nM.
The matching figures for `CC[C@H](C)[C@@H]1NC(=O)[C@H](CCCCN)NC(=O)[C@@H](NC(=O)[C@H](CCCCN)NC(=O)[C@@H](NC(=O)[C@H](CC(N)=O)NC(=O)[C@@H](NC(=O)[C@@H](NC(=O)[C@@H](NC(=O)CN)C(C)C)[C@@H](C)CC)[C@@H](C)CC)C(C)C)CSSC[C@@H]2NC(=O)[C@H](CCCCN)NC(=O)CNC(=O)[C@H](Cc3ccccc3)NC(=O)[C@H](CCCNC(=N)N)NC(=O)[C@H](CCSC)NC(=O)CNC(=O)[C@H](C)NC(=O)[C@H](CCCCN)NC(=O)[C@H](CCCCN)NC(=O)[C@@H]3CSSC[C@@H](C(=O)N[C@H](C(=O)N4CCC[C@H]4C(=O)N[C@@H](CCCCN)C(=O)O)[C@@H](C)O)NC(=O)[C@H](Cc4c[nH]cn4)NC(=O)[C@H](CSSC[C@H](NC(=O)[C@H](CCCNC(=N)N)NC(=O)[C@H](CCCNC(=N)N)NC(=O)[C@H](CO)NC1=O)C(=O)N[C@@H](CC(C)C)C(=O)N[C@@H](CCC(=O)O)C(=O)N1CCC[C@H]1C(=O)N3)NC(=O)[C@H](CCCCN)NC(=O)CNC(=O)[C@H](CC(N)=O)NC(=O)[C@H](CCSC)NC2=O` [Q13R] (H-GVIINVKCKISRRCLEPCKKAGMRFGKCMNGKCHCTPK-OH; disulfide 8-28, 14-33, 18-35): 0.172 nM and 0.16 nM.
Taken in the same sequence, the figures for `CC[C@H](C)[C@@H]1NC(=O)[C@H](CCCCN)NC(=O)[C@@H](NC(=O)[C@H](CCCCN)NC(=O)[C@@H](NC(=O)[C@H](CC(N)=O)NC(=O)[C@@H](NC(=O)[C@@H](NC(=O)[C@@H](NC(=O)CN)C(C)C)[C@@H](C)CC)[C@@H](C)CC)C(C)C)CSSC[C@@H]2NC(=O)[C@H](CCCCN)NC(=O)CNC(=O)[C@H](Cc3ccccc3)NC(=O)[C@H](CCCNC(=N)N)NC(=O)[C@H](CCSC)NC(=O)CNC(=O)[C@H](C)NC(=O)[C@H](CCCCN)NC(=O)[C@H](CCCCN)NC(=O)[C@@H]3CSSC[C@@H](C(=O)N[C@H](C(=O)N[C@@H](Cc4cccc5ccccc45)C(=O)N[C@@H](CCCCN)C(=O)O)[C@@H](C)O)NC(=O)[C@H](Cc4c[nH]cn4)NC(=O)[C@H](CSSC[C@H](NC(=O)[C@H](CCC(N)=O)NC(=O)[C@H](CCCNC(=N)N)NC(=O)[C@H](CO)NC1=O)C(=O)N[C@@H](CC(C)C)C(=O)N[C@@H](CCC(=O)O)C(=O)N1CCC[C@H]1C(=O)N3)NC(=O)[C@H](CCCCN)NC(=O)CNC(=O)[C@H](CC(N)=O)NC(=O)[C@H](CCSC)NC2=O` [P37Nal] (H-GVIINVKCKISRQCLEPCKKAGMRFGKCMNGKCHCT[1Nal]K-OH; disulfide 8-28, 14-33, 18-35) were 3.04 nM and 1.76 nM.
For the compound “GVIINVKCKISRQCLEPCKKAGMRFGACMNGKCHCTPK [Ala-27 (SEQ ID No: 1423)]”, the IC50 in test [1] (read-out: Average IC50 IFNg) is 1.58 nM; in test [2] (read-out: Average IC50 IL-2) it was 3.45 nM.
“R12A, E16K, K20D (GVIINVKCKISAQCLKPCKDAGMRFGKCMNGKCHCTPK)”: the values for the IC50 in test [1] (read-out: WB/IFNg (IC50)) and in test [2] (read-out: WB/IL-2 (IC50)) were 0.092 nM and 0.041 nM, respectively.
Regarding `CC[C@H](C)[C@@H]1NC(=O)[C@H](CCCCN)NC(=O)[C@@H](NC(=O)[C@H](CCCCN)NC(=O)[C@@H](NC(=O)[C@H](CC(N)=O)NC(=O)[C@H](CCCNC(=N)N)NC(=O)[C@@H](NC(=O)[C@@H](NC(=O)CN)C(C)C)[C@@H](C)CC)C(C)C)CSSC[C@@H]2NC(=O)[C@H](CCCCN)NC(=O)CNC(=O)[C@H](Cc3ccccc3)NC(=O)[C@H](CCCNC(=N)N)NC(=O)[C@H](CCSC)NC(=O)CNC(=O)[C@H](C)NC(=O)[C@H](CCCCN)NC(=O)[C@H](CCCCN)NC(=O)[C@@H]3CSSC[C@@H](C(=O)N[C@H](C(=O)N4CCC[C@H]4C(=O)N[C@@H](CCCCN)C(=O)O)[C@@H](C)O)NC(=O)[C@H](Cc4c[nH]cn4)NC(=O)[C@H](CSSC[C@H](NC(=O)[C@H](CCC(N)=O)NC(=O)[C@H](CCCNC(=N)N)NC(=O)[C@H](CO)NC1=O)C(=O)N[C@@H](CC(C)C)C(=O)N[C@@H](CCC(=O)O)C(=O)N1CCC[C@H]1C(=O)N3)NC(=O)[C@H](CCCCN)NC(=O)CNC(=O)[C@H](CC(N)=O)NC(=O)[C@H](CCSC)NC2=O` [I4R] (H-GVIRNVKCKISRQCLEPCKKAGMRFGKCMNGKCHCTPK-OH; disulfide 8-28, 14-33, 18-35), the IC50 in test [1] (setting [3]) amounted to 0.175 nM; in test [2] (setting [4]), 0.168 nM.
The matching figures for `CC[C@H](C)[C@@H]1NC(=O)[C@H](CCCCN)NC(=O)[C@@H](NC(=O)[C@H](CCCCN)NC(=O)[C@@H](NC(=O)[C@H](CC(N)=O)NC(=O)[C@@H](NC(=O)[C@@H](NC(=O)[C@@H](NC(=O)CN)C(C)C)[C@@H](C)CC)[C@@H](C)CC)C(C)C)CSSC[C@@H]2NC(=O)[C@H](CCCCN)NC(=O)CNC(=O)[C@H](Cc3ccccc3)NC(=O)[C@H](CCCNC(=N)N)NC(=O)[C@H](CCC(=O)O)NC(=O)CNC(=O)[C@H](C)NC(=O)[C@H](CCCCN)NC(=O)[C@H](CCCCN)NC(=O)[C@@H]3CSSC[C@@H](C(=O)N[C@H](C(=O)N4CCC[C@H]4C(=O)N[C@@H](CCCCN)C(=O)O)[C@@H](C)O)NC(=O)[C@H](Cc4c[nH]cn4)NC(=O)[C@H](CSSC[C@H](NC(=O)[C@H](CCC(N)=O)NC(=O)[C@H](CCCNC(=N)N)NC(=O)[C@H](CO)NC1=O)C(=O)N[C@@H](CC(C)C)C(=O)N[C@@H](CCC(=O)O)C(=O)N1CCC[C@H]1C(=O)N3)NC(=O)[C@H](CCCCN)NC(=O)CNC(=O)[C@H](CC(N)=O)NC(=O)[C@H](CCSC)NC2=O` [M23E] (H-GVIINVKCKISRQCLEPCKKAGERFGKCMNGKCHCTPK-OH; disulfide 8-28, 14-33, 18-35): 0.666 nM and 0.606 nM.
With “GVIINVKCKISRQCLEPCKKAAMRFGKCMNGKCHCTPK [Ala-22 (SEQ ID No: 1418)]”, the IC50 in test [1] (read-out: Average IC50 IFNg) and in test [2] (read-out: Average IC50 IL-2) was 7.09 nM each time.
As for “GVIINVKCKISRQCLEPCAKAGMRFGKCMNGKCHCTPK [Ala-19 (SEQ ID No: 1415)]”, the IC50 in test [1] (read-out: Average IC50 IFNg) and in test [2] (read-out: Average IC50 IL-2) was 0.163 nM throughout.
For the compound `CC[C@H](C)[C@@H]1NC(=O)[C@H](CCCCN)NC(=O)[C@@H](NC(=O)[C@H](CCCCN)NC(=O)[C@@H](NC(=O)[C@H](CC(N)=O)NC(=O)[C@@H](NC(=O)[C@@H](NC(=O)[C@@H](NC(=O)CN)C(C)C)[C@@H](C)CC)[C@@H](C)CC)C(C)C)CSSC[C@@H]2NC(=O)[C@H](CCCCN)NC(=O)CNC(=O)[C@H](Cc3ccccc3)NC(=O)[C@H](CCCNC(=N)N)NC(=O)[C@H](CCSC)NC(=O)CNC(=O)[C@H](C)NC(=O)[C@H](CCCCN)NC(=O)[C@H](C)NC(=O)[C@@H]3CSSC[C@@H](C(=O)N[C@H](C(=O)N4CCC[C@H]4C(=O)N[C@@H](CCCCN)C(=O)O)[C@@H](C)O)NC(=O)[C@H](Cc4c[nH]cn4)NC(=O)[C@H](CSSC[C@H](NC(=O)[C@H](CCC(N)=O)NC(=O)[C@H](CCCNC(=N)N)NC(=O)[C@H](CO)NC1=O)C(=O)N[C@@H](CC(C)C)C(=O)N[C@@H](CCC(=O)O)C(=O)N1CCC[C@H]1C(=O)N3)NC(=O)[C@H](CCCCN)NC(=O)CNC(=O)[C@H](CC(N)=O)NC(=O)[C@H](CCSC)NC2=O` [K19A] (H-GVIINVKCKISRQCLEPCAKAGMRFGKCMNGKCHCTPK-OH; disulfide 8-28, 14-33, 18-35), the IC50 in test [1] (setting [3]) and in test [2] (setting [4]) was 0.163 nM each time.
For the compound “GVIINVKCKISRQCLEPCKAAGMRFGKCMNGKCHCTPK [Ala-20 (SEQ ID No: 1416)]”, the IC50 in test [1] (read-out: Average IC50 IFNg) and in test [2] (read-out: Average IC50 IL-2) was 0.379 nM in each case.
